Results: patent publication US20030157704A1, “Reagents and methods for identifying and modulating expression of genes regulated by CDK inhibitors” (priority 2001, published 2003)

Columns and labels:
Format in all cases: cell-based, human
[1] = tested on: HT1080 p21-9 cells; test: Labeling index (3H-thymidine) and mitotic index
Method: Cell growth in the presence of IPTG was assayed in three ways: measuring ^3H-thymidine incorporation (termed the “labeling index”); observing the number of mitotic cells in the culture by microscopy (termed the “mitotic index”) and determining the distribution of the culture cells in different portions of the cell cycle (termed the “cell cycle distribution”).
^3H-thymidine incorporation assays were performed substantially as described by Dimri et al. (1995, Proc. Natl. Acad. Sci. USA 92: 9363-9367). Cells were cultured in the presence of ^3H-thymidine for 3 h, and then analyzed by autoradiography. DNA replication was determined by autoradiography ceased entirely by 9 hours after addition of IPTG to the culture media. The mitotic index was determined by observing cells microscopically and calculating the number of cells in mitosis after staining with 5 μg/mL 4,6-diamino-2-phenylindole (DAPI), and images were collected using a Leica DMIRB fluorescence microscope and Vaytek (Fairfield, Iowa) imaging system. Microscopically-detectable mitotic cells disappeared from these cultures by 14 hrs of IPTG treatment.

[2] = tested on: NK4 promoter; test: Luciferase assay in LuNK4p21 cell line (NK4 promoter-luciferase, IPTG-inducible p21)
Method: This assay was performed as follows. Cells were plated at a density of 40,000 cells/well in 12 well plates in 1 mL of media containing penicillin/streptomycin, glutamine and 10% fetal calf serum (FCS). After attachment, cells were treated with 50 μM IPTG or left untreated for different periods of time. Luciferase activity was then measured as described in Example 8 above. An additional aliquot was removed from the cell lysate to measure protein concentration using the Bio-Rad protein assay kit (Bradford assay). Luciferase activity for each sample was normalized to protein content and expressed as luciferase activity/μg protein.
Luciferase assays were performed substantially as described in Example 9. Luciferase activity was measured after 16 hrs of incubation with or without 50 μM IPTG, followed by an additional 20 hr treatment in the presence or in the absence of 20 mM sodium salicylate, 1 mM sulindac, or 10 mM aspirin. […] NSAID concentrations were based on the pharmacologic concentrations of these agents in the serum of patients required for their anti-inflammatory properties (Yin et al., 1998, ibid.).

[3] = tested on: HT1080 p16-5 cells; test: Cell cycle distribution by FACS analysis of DNA content; details: 50 μM IPTG, 24 hrs
Method: This cell population was subcloned, and 20 clonal cell lines were isolated and tested for IPTG-inducible growth inhibition. Cell line showing the strongest growth inhibition was designated HT1080 p16-5. This cell line has been deposited on Jan. 31, 2002 in the American Type Culture Collection (A.T.C.C.), Manassas, Va. and given Accession Number PTA-4020. […] Fractions of cells in different phases of the cell cycle were determined using FACS analysis of DNA content after staining with propidium iodide as described by Jordan et al. (1996, Cancer Res. 56:816-825) using Becton Dickinson FACSort. Cell cycle distribution stabilized after 24 hrs of IPTG treatment, by which time 93% of IPTG-treated cells were arrested in G1. Such G1 arrest is expected from the inhibition of CDK4/6 by p16.

[4] = tested on: p21; test: p21 protein level after IPTG induction (ELISA)
Method: FIG. 2A is a graph of the time course of p21 induction after the addition of 50 μM IPTG, where p21 levels were determined by ELISA.
p21 expression from the LNp21CO3 vector in HT1080 p21-9 cells was induced by culturing the cells in DMEM medium containing 10% fetal calf serum (Hyclone, Logan, Utah) and IPTG. […] Upon removing the cells from IPTG-containing media, p21 expression fell about as rapidly as it had risen, returning to pre-induction levels at about 24 hours after IPTG was removed (FIG. 2B).

## CC(C)S[C@@H]1O[C@H](CO)[C@H](O)[C@H](O)[C@H]1O [IPTG, isopropyl-β-thiogalactoside]
[1]; DAPI staining, microscopy
  time of IPTG treatment by which mitotic cells disappeared: ≤ 14 h
[1]; autoradiography of 3H-thymidine incorporation
  time after addition of IPTG by which DNA replication ceased entirely: ≤ 9 h
[2]; 50 μM IPTG
  treatment period at which most of the induction is achieved: 17 h
[2]; 50 μM IPTG, absence of NSAID
  increase of luciferase expression: 3-4 fold
[2]; 24 hrs of IPTG treatment
  IPTG concentration at which most of the induction is achieved: 5 µM
[2]; LuNK4p21 cell line
  increase in luciferase levels in IPTG-treated cells: approximately 3 fold
[3]
  cells arrested in G1: 93%
[4]; 50 μM IPTG
  time of peak p21 expression post-induction: about 24 hours
[4]; HT1080 p21-9 cells
  increase of p21 levels in IPTG-treated cells: 15-20 fold
